US10669272B2, “Substituted naphthyridinone compounds useful as T cell activators” (BRISTOL-MYERS SQUIBB COMPANY, priority 2018, dated 2020)
Read-outs that look alike come from different tables or passages of the source.

Assays:
Human venous whole blood = assay: Human whole blood IFN-γ assay; format: cell-based; settings: human whole blood, read-out: INFg Whole Blood Normalized Agonist EC50;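 note: blood from healthy donors exposed to compound for 1 h before stimulation with anti-CD3 and anti-CD28 at 1 µg/mL each, IFN-γ quantified in supernatant by AlphaLISA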
human DGKζ = biological target: T1, human DGKζ (Homo sapiens, UniProt Q13574); assay: DGKζ LIPGLO assay (extruded liposome substrate), in vitro DGK inhibition; format: biochemical; settings: read-out: DGKz LIPGLO IC50
T1 construct: TVMV protease cleavage site (C); Hexa-His (C); made in house; host or cells: Sf9 insect cells (baculovirus, Bac-to-Bac)

human DGKα = biological target: T2, human DGKα (Homo sapiens, UniProt P23743); assay: DGKα LIPGLO assay (extruded liposome substrate), in vitro DGK inhibition; format: biochemical
T2 construct: TVMV protease cleavage site (C); Hexa-His (C); made in house; host or cells: Sf9 insect cells (baculovirus, Bac-to-Bac)

[1] = normalized to 3 μM reference compound with anti-CD3 plus anti-CD28 as 100% activation
[2] = liposome (LIPGLO) assay, read-out: DGKa LIPGLO IC50
[3] = anti-CD3 plus anti-CD28, 24 hours, 3 μM reference compound = 100% activation
[4] = DGKα liposome (LIPGLO) assay, read-out: DGKa LIPGLO IC50
[5] = Homo sapiens, 24 h, normalized to 3 μM reference compound with anti-CD3 plus anti-CD28 as 100% activation
[6] = Homo sapiens, 24 h, anti-CD3 plus anti-CD28, 24 hours, 3 μM reference compound = 100% activation

T2 sequence (P23743 with tags, fused parts or gaps): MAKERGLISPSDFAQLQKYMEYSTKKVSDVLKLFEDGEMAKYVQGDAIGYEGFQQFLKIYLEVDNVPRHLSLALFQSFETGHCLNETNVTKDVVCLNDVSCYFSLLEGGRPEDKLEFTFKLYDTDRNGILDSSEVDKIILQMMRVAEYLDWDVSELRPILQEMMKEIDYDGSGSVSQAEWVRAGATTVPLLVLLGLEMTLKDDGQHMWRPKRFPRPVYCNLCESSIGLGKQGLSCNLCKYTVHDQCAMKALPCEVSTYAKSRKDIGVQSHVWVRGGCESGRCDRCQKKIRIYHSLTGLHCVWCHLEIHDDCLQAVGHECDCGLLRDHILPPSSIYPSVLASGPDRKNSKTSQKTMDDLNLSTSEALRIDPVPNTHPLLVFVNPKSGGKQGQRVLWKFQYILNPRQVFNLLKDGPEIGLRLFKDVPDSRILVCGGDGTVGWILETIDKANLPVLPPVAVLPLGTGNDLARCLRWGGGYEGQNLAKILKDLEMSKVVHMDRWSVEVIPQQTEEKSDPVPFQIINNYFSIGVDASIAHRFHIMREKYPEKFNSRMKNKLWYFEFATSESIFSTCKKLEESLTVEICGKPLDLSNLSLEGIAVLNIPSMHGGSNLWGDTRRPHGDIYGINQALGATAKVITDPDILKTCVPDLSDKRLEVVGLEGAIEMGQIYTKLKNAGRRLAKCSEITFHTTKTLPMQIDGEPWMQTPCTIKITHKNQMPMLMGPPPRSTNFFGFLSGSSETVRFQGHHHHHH
T1 sequence (Q13574 with tags, fused parts or gaps isoform Q13574-4): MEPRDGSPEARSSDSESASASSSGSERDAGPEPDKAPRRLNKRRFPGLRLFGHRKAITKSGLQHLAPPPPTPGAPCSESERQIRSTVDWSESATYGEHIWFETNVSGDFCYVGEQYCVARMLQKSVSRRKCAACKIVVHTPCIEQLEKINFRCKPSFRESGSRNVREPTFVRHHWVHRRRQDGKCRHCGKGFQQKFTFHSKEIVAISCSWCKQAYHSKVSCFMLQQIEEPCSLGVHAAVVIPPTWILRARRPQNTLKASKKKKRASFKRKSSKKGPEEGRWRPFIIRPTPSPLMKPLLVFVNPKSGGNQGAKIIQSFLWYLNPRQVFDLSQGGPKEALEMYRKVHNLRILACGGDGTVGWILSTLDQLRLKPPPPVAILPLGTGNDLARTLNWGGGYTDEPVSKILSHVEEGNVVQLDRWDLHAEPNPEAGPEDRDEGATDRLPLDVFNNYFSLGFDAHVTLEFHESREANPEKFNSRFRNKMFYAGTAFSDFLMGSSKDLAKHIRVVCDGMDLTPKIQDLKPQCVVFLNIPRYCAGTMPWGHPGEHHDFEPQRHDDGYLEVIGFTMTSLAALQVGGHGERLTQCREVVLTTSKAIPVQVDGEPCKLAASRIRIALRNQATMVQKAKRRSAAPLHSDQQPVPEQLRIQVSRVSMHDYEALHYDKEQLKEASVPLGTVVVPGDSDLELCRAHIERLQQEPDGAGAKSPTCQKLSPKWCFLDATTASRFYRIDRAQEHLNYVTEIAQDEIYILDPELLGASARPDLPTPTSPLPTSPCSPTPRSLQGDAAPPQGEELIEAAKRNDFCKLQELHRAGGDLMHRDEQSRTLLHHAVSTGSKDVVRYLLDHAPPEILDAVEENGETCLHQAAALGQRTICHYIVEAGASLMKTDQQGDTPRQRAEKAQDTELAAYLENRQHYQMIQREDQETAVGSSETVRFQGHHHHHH

IC50 (human DGKζ; liposome (LIPGLO) assay) [µM]	IC50 (human DGKα; [2]) [µM]	IC50 (human DGKζ; DGKζ liposome (LIPGLO) assay) [µM]	IC50 (human DGKα; [4]) [µM]	Structure (SMILES)	EC50 (Human venous whole blood; [1]) [µM]	further results
3.4	1.9			CC[C@H]1CN(C(C)c2ccc(C3CC3)cc2)[C@H](CC)CN1c1cc(=O)n(C)c2ccc(C#N)nc12 (single isomer, unassigned) [Example 1356]	1.3	
		0.33	0.38	COc1ccc(C(C)N2C[C@H](C)N(c3c(C#N)c(=O)n(C)c4ccc(C#N)nc34)C[C@H]2C)nc1 (single isomer, unassigned) [Example 800]		EC50 (Human venous whole blood; [3]): 5.9 µM
1.8	19			CC(c1ccc(OC(F)(F)F)cc1)N1C[C@H](C)N(c2cc(=O)n(C)c3ccc(C#N)nc23)C[C@H]1CN1CCOCC1 (single isomer, unassigned) [Example 1415]	6.9	
2.5	1.2			Cc1ccc(C(c2ccc(F)cc2)N2C[C@H](C)N(c3c(F)c(=O)n(C)c4ccc(C#N)nc34)C[C@H]2C)cc1 (stereo partly drawn) [Example 335, 7-fluoro-8-((2S,5R)-4-((4-fluorophenyl)(p-tolyl)methyl)-2,5-dimethylpiperazin-1-yl)-5-methyl-6-oxo-5,6-dihydro-1,5-naphthyridine-2-carbonitrile]	1.2	
7.7	2.1			CC(C)c1nc(CN2C[C@H](C)N(c3cc(=O)n(C)c4ccc(C#N)nc34)C[C@H]2C)no1 [Example 1432]		EC50 (Human venous whole blood; [5]): 20 µM
0.29	0.2			C[C@@H]1CN(c2cc(=O)n(C)c3ccc(C#N)nc23)[C@@H](C)CN1C(Cc1nc(C2CC2)no1)c1ccc(F)cc1 (single isomer, unassigned) [Example 1327]	0.18	
2.1	2			C[C@@H]1CN(c2cc(=O)n(C)c3ccc(C#N)nc23)[C@@H](C)CN1C(c1cccc(F)c1)c1ccccn1 (single isomer, unassigned) [Example 379]		EC50 (Human venous whole blood; [5]): 1.1 µM
		5.8	4.1	C[C@@H]1CN(c2c(C#N)c(=O)n(C)c3ccc(C#N)nc23)CCN1Cc1ccc(Cl)c(Cl)c1 [Example 996]		EC50 (Human venous whole blood; [6]): 20 µM
0.18	0.68			CC(c1ccc(F)c(Cl)c1)N1C[C@H](C)N(c2cc(=O)n(C)c3ccc(C#N)nc23)C[C@H]1C (single isomer, unassigned) [Example 1256]	0.48	
3.1	0.88			CC[C@H]1CN(C(c2ccc(F)cc2)c2ccc(C#N)cc2)[C@H](C)CN1c1cc(=O)n(C)c2ccc(C#N)nc12 (stereo partly drawn) [Example 1124]	1.4	
		4.9	4.7	C[C@@H]1CN(c2c(C#N)c(=O)n(C)c3ccc(C#N)nc23)[C@@H](C)CN1C(c1ccc(F)cc1)c1ccc(C(F)(F)F)cn1 (single isomer, unassigned) [Example 836]		EC50 (Human venous whole blood; [6]): 1.1 µM
		1.7	21	C[C@@H]1CN(c2cc(=O)n(C)c3ccc(C#N)nc23)[C@@H](C)CN1C(c1ccc(F)cc1)c1nnnn1C(C)(C)C (single isomer, unassigned) [Example 770]		EC50 (Human venous whole blood; [6]): 8.5 µM
0.16	0.038			CC[C@H]1CN(Cc2c(F)cc(F)cc2F)[C@H](C)CN1c1cc(=O)n(C)c2ccc(C#N)nc12 [Example 1148]		EC50 (Human venous whole blood; [5]): 1.2 µM
0.033	0.062			CC[C@H]1CN(C(C)c2ccc(C3CC3)cc2)[C@H](CC)CN1c1cc(=O)n(C)c2ccc(C#N)nc12 (single isomer, unassigned) [Example 1355]	0.028	
2.7	0.15			C[C@@H]1CN(c2cc(=O)n(C)c3ccc(C#N)nc23)[C@@H](C)CN1C(c1ccc(F)cc1)c1ncccn1 (stereo partly drawn) [Example 677]	1.8	
		41	37	Cc1ccc(C(c2ccc(Cl)cc2)N2CCN(c3c(C#N)c(=O)n(C)c4ccc(C#N)nc34)C[C@H]2C)cc1 (single isomer, unassigned) [Example 944]		EC50 (Human venous whole blood; [3]): 6.7 µM
0.042	0.015			CC[C@H]1CN(C(C)c2ccc(F)cc2)[C@H](CC)CN1c1cc(=O)n(C)c2ccc(C#N)nc12 (single isomer, unassigned) [Example 1049]	0.13	
1.2	0.2			CC(c1ccc(OC(F)(F)F)cc1)N1C[C@H](C)N(c2cc(=O)n(C)c3ccc(C#N)nc23)C[C@H]1CC#N (single isomer, unassigned) [Example 1411]		EC50 (Human venous whole blood; [5]): 2.2 µM

IC50 (human DGKζ; liposome (LIPGLO) assay) [µM]	IC50 (human DGKα; [2]) [µM]	IC50 (human DGKζ; DGKζ liposome (LIPGLO) assay) [µM]	IC50 (human DGKα; [4]) [µM]	Structure (SMILES)	EC50 (Human venous whole blood; [1]) [µM]	further results
		5.7		CC(c1ccc(Cl)cc1)N1C[C@H](C)N(c2c(C#N)c(=O)n(C)c3ccc(C#N)nc23)C[C@H]1C (single isomer, unassigned) [Example 791]		EC50 (Human venous whole blood; [3]): 1.3 µM; IC50 (human DGKα; DGKa LIPGLO IC50, DGKα liposome (LIPGLO) assay): 1.9 µM
		1.5	2.4	Cc1ccc(C(c2cccc(Cl)c2)N2CCN(c3c(C#N)c(=O)n(C)c4ccc(C#N)nc34)C[C@H]2C)nc1 (single isomer, unassigned) [Example 928]		EC50 (Human venous whole blood; [6]): 1.7 µM
		3.9	1.3	C[C@@H]1CN(c2c(C#N)c(=O)n(C)c3ccc(C#N)nc23)CCN1Cc1ccc(F)cc1Cl [Example 993]		EC50 (Human venous whole blood; [6]): 3.8 µM
3.6	0.069			C[C@@H]1CN(c2cc(=O)n(C)c3ccc(C#N)nc23)[C@@H](C)CN1C(c1ccc(F)cc1)c1nccs1 (single isomer, unassigned) [Example 711]		EC50 (Human venous whole blood; [5]): 1.7 µM
1.7	92			C[C@@H]1CN(c2cc(=O)n(C)c3ccc(C#N)nc23)[C@@H](C)CN1C(c1ccc(F)cc1)c1cccc(N2CCOCC2)c1 (single isomer, unassigned) [Example 672]	9.5	
1.1	0.14			Cc1ccc(C(c2ccc(C)cn2)N2C[C@H](C)N(c3cc(=O)n(C)c4ccc(C#N)nc34)C[C@H]2C)cc1 (single isomer, unassigned) [Example 457]	0.59	
2.2	2.7			Cc1ccc(C(c2ccc(C#N)cc2)N2C[C@H](C)N(c3c(F)c(=O)n(C)c4ccc(C#N)nc34)C[C@H]2C)cc1 (stereo partly drawn) [Example 322, 8-((2S,5R)-4-((4-cyanophenyl)(p-tolyl)methyl)-2,5-dimethylpiperazin-1-yl)-7-fluoro-5-methyl-6-oxo-5,6-dihydro-1,5-naphthyridine-2-carbonitrile]		EC50 (Human venous whole blood; [5]): 2.2 µM
0.045	0.026			CC[C@H]1CN(C(C)c2ccc(F)cc2F)[C@H](C)CN1c1cc(=O)n(C)c2ccc(C#N)nc12 (single isomer, unassigned) [Example 1137]	0.29	
0.076	0.058			CC[C@@H]1CN(c2cc(=O)n(C)c3ccc(C#N)nc23)[C@@H](CC)CN1Cc1ccc(F)cc1F [Example 1062]		EC50 (Human venous whole blood; [5]): 0.11 µM
0.51	1.7			Cc1ccc(C(c2cccc3c2OCCCO3)N2C[C@H](C)N(c3cc(=O)n(C)c4ccc(C#N)nc34)C[C@H]2C)nc1 (single isomer, unassigned) [Example 469]	3.2	
1.6	0.14			C[C@@H]1CN(c2cc(=O)n(C)c3ccc(C#N)nc23)[C@@H](C)CN1C(c1ccc(OC(F)(F)F)cc1)c1ccc(F)cn1 (single isomer, unassigned) [Example 468]	1.3	
8.1	0.22			C[C@@H]1CN(c2cc(=O)n(C)c3ccc(C#N)nc23)[C@@H](C)CN1C(c1ccc(F)cc1)c1ncco1 (stereo partly drawn) [Example 717]		EC50 (Human venous whole blood; [5]): 1.6 µM
		2.6	5	C[C@@H]1CN(c2c(C#N)c(=O)n(C)c3ccc(C#N)nc23)[C@@H](C)CN1C(c1ccccc1)c1ccc(F)cc1 (stereo partly drawn) [Example 807]		EC50 (Human venous whole blood; [6]): 2.5 µM
		0.16	0.023	C[C@@H]1CN(c2cc(=O)n(C)c3ccc(C#N)nc23)[C@@H](C)CN1C(c1ccc(F)cc1)c1nc(C2CN(C(=O)OC(C)(C)C)C2)no1 (single isomer, unassigned) [Example 757]		EC50 (Human venous whole blood; [3]): 1 µM
0.17	0.13			CC[C@@H]1CN(c2cc(=O)n(C)c3ccc(C#N)nc23)[C@@H](C)CN1C(C)c1ccc(OC)cc1 (single isomer, unassigned) [Example 482]	0.29	
		0.23	0.058	CCc1noc(C(c2ccc(F)cc2)N2C[C@H](C)N(c3cc(=O)n(C)c4ccc(C#N)nc34)C[C@H]2C)n1 (single isomer, unassigned) [Example 754]		EC50 (Human venous whole blood; [3]): 0.091 µM
19	35			C[C@@H]1CN(c2cc(=O)n(C)c3ccc(C#N)nc23)[C@@H](C)CN1C(c1ccc(F)cc1)c1cncc(F)c1 (single isomer, unassigned) [Example 415]		EC50 (Human venous whole blood; [5]): 16 µM
		11	16	C[C@@H]1CN(c2c(C#N)c(=O)n(C)c3ccc(C#N)nc23)[C@@H](C)CN1C(c1ccc(F)cc1)c1ccc(C#N)cc1 (single isomer, unassigned) [Example 824]		EC50 (Human venous whole blood; [3]): 3.2 µM
